Biological target: T1, recombinant Vps34 (Homo sapiens, UniProt Q8NEB9)
T1 construct: purchased Invitrogen PV5126
Experiment: Phosphorylation of phosphatidylinositol (PI) by Vps34 in vitro, ADP detected by TR-FRET (HTRF Transcreener ADP)
Format: biochemical
Conditions: 10 μM ATP, 55 μg/ml PI, approximately 3 nM Vps34, 1 hour at ambient temperature; absolute IC50, mean of two independent experiments; read-out: IC50 activity range

T1 sequence (Q8NEB9 whole entry): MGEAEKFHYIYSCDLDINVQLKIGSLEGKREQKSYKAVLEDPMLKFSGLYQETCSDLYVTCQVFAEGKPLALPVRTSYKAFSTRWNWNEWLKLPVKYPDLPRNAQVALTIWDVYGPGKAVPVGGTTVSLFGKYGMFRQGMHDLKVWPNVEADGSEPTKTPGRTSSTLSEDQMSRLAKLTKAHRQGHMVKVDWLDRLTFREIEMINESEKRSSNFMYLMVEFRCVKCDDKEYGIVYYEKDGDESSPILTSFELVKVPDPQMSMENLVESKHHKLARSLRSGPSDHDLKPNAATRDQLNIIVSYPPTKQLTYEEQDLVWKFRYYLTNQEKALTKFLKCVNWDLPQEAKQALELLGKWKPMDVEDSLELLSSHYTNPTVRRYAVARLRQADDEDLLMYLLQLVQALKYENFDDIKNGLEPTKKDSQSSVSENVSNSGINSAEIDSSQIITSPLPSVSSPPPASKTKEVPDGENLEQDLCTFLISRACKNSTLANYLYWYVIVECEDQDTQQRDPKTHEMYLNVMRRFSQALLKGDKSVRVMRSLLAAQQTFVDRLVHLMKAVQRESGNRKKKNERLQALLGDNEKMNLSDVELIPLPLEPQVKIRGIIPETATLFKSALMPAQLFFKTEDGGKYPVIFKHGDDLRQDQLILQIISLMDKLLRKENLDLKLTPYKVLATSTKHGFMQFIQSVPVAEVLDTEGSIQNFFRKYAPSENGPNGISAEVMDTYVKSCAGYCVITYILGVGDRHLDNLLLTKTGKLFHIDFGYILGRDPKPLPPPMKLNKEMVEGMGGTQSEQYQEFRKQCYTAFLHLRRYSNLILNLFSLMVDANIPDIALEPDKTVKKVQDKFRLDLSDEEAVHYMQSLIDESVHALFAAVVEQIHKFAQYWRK

Compound | IC50
Cc1nocc1CN1CC[C@H](C(F)(F)F)n2c1nc(N1CCOC[C@H]1C)c(F)c2=O [Example 146, (R)-3-Fluoro-9-(3-methylisoxazol-4-yl-methyl)-2-((R)-3-methylmorpholin-4-yl)-6-trifluoromethyl-6,7,8,9-tetrahydro-pyrimido[1,2-a]-pyrimidin-4-one] | < 10 nM
C[C@@H]1COCCN1c1nc2n(c(=O)c1F)CC[C@@H](C(F)(F)F)N2CC(=O)N1CC2(CCO2)C1 [Example 333, (S)-3-Fluoro-2-((R)-3-methylmorpholin-4-yl)-9-[2-(1-oxa-6-aza-spiro[3.3]hept-6-yl)-2-oxoethyl]-8-trifluoromethyl-6,7,8,9-tetrahydropyrimido-[1,2-a]pyrimidin-4-one] | < 10 nM
C[C@@H]1COCCN1c1nc2n(c(=O)c1F)CC[C@@H](C(F)(F)F)N2CC(=O)N1CC2(COC2)C1 [Example 293, (S)-3-Fluoro-2-((R)-3-methylmorpholin-4-yl)-9-[2-(2-oxa-6-aza-spiro[3.3]hept-6-yl)-2-oxoethyl]-8-trifluoromethyl-6,7,8,9-tetrahydro-pyrimido[1,2-a]-pyrimidin-4-one] | < 10 nM
CC(=O)CN1CC[C@H](C(F)(F)F)n2c1nc(N1CCOC[C@H]1C)cc2=O [Example 145, (R)-2-((R)-3-Methyl-morpholin-4-yl)-9-(2-oxopropyl)-6-trifluoromethyl-6,7,8,9-tetrahydro-pyrimido[1,2-a]-pyrimidin-4-one] | 10 to 100 nM
C[C@@H]1COCCN1c1cc(=O)n2c(n1)N(Cc1nnc(C(F)(F)F)o1)[C@H](C(F)(F)F)CC2 [Example 140, (S)-2-((R)-3-Methyl-morpholin-4-yl)-8-trifluoromethyl-9-(5-trifluoromethyl-[1,3,4]oxadiazol-2-yl-methyl)-6,7,8,9-tetrahydro-pyrimido[1,2-a]-pyrimidin-4-one] | < 10 nM
C[C@@H]1COCCN1c1nc2n(c(=O)c1F)C[C@@](C)(C(F)(F)F)N2CC(=O)C1CCOCC1 [Example 186, (S)-6-Fluoro-2-methyl-7-((R)-3-methyl-morpholin-4-yl)-1-[2-oxo-2-(tetrahydro-pyran-4-yl)ethyl]-2-trifluoromethyl-2,3-dihydro-1H-imidazo[1,2-a]-pyrimidin-5-one] | < 10 nM
C[C@H]1COCCN1c1nc2n(c(=O)c1F)CC[C@@H](C(F)(F)F)N2CC(=O)C1CC1 [Example 321, (S)-9-(2-Cyclopropyl-2-oxoethyl)-3-fluoro-2-((S)-3-methyl-morpholin-4-yl)-8-trifluoromethyl-6,7,8,9-tetrahydropyrimido-[1,2-a]pyrimidin-4-one] | 10 to 100 nM
C[C@@H]1COCCN1c1cc(=O)n2c(n1)N(Cc1ccc(Cl)cn1)[C@H](C(F)(F)F)CC2 [Example 86, (S)-9-(5-Chloro-pyridin-2-ylmethyl)-2-((R)-3-methyl-morpholin-4-yl)-8-trifluoromethyl-6,7,8,9-tetrahydro-pyrimido[1,2-a]-pyrimidin-4-one] | < 10 nM
C[C@@H]1COCCN1c1cc(=O)n2c(n1)N(CC(=O)C1CC1)[C@H](C(F)(F)F)CC2 [Example 241, (S)-9-(2-Cyclopropyl-2-oxoethyl)-2-((R)-3-methylmorpholin-4-yl)-8-trifluoromethyl-6,7,8,9-tetrahydro-pyrimido[1,2-a]-pyrimidin-4-one] | < 10 nM
CCC(C)C(=O)CN1c2nc(N3CCOC[C@H]3C)cc(=O)n2CC[C@H]1C(F)(F)F (stereo partly drawn) [Example 291, (S)-2-((R)-3-Methyl-morpholin-4-yl)-9-(3-methyl-2-oxo-pentyl)-8-trifluoromethyl-6,7,8,9-tetrahydro-pyrimido[1,2-a]-pyrimidin-4-one] | < 10 nM
C[C@@H]1COCCN1c1nc2n(c(=O)c1F)CC[C@@H](C(F)(F)F)N2CC(=O)c1ncccc1F [Example 59, (S)-3-Fluoro-9-[2-(3-fluoropyridin-2-yl)-2-oxoethyl]-2-((R)-3-methylmorpholin-4-yl)-8-trifluoromethyl-6,7,8,9-tetrahydro-pyrimido[1,2-a]-pyrimidin-4-one] | < 10 nM
Cc1nc(CN2c3nc(N4CCOC[C@H]4C)cc(=O)n3CC[C@H]2C(F)(F)F)no1 [Example 2, (S)-2-((R)-3-Methyl-morpholin-4-yl)-9-(5-methyl-[1,2,4]oxadiazol-3-yl-methyl)-8-trifluoromethyl-6,7,8,9-tetrahydro-pyrimido[1,2-a]-pyrimidin-4-one] | < 10 nM
C[C@@H]1COCCN1c1cc(=O)n2c(n1)N(Cc1ccc(Cl)nc1)[C@H](C(F)(F)F)CC2 [Example 35, (S)-9-(6-Chloro-pyridin-3-ylmethyl)-2-((R)-3-methyl-morpholin-4-yl)-8-trifluoromethyl-6,7,8,9-tetrahydro-pyrimido[1,2-a]-pyrimidin-4-one] | < 10 nM
C[C@@H]1COCCN1c1nc2n(c(=O)c1F)[C@@H](C(F)(F)F)CCN2c1ccc(C(F)F)nc1 [Example 121, (R)-9-(6-Difluoromethylpyridin-3-yl)-3-fluoro-2-((R)-3-methylmorpholin-4-yl)-6-trifluoromethyl-6,7,8,9-tetrahydro-pyrimido[1,2-a]-pyrimidin-4-one] | < 10 nM
C[C@@H]1COCCN1c1cc(=O)n2c(n1)N(Cc1cnco1)[C@](C)(C(F)(F)F)C2 [Example 182, (S)-2-Methyl-7-((R)-3-methylmorpholin-4-yl)-1-oxazol-5-ylmethyl-2-trifluoromethyl-2,3-dihydro-1H-imidazo[1,2-a]-pyrimidin-5-one] | 10 to 100 nM
C[C@@H]1COCCN1c1cc(=O)n2c(n1)N(CC(F)C1CC1)[C@H](C(F)(F)F)CC2 (single isomer, unassigned) [Example 325] | < 10 nM
C[C@@H]1COCCN1c1cc(=O)n2c(n1)N(c1ccnc(Cl)c1)CC[C@@H]2C(F)(F)F [Example 108, (R)-9-(2-Chloro-pyridin-4-yl)-2-((R)-3-methylmorpholin-4-yl)-6-trifluoromethyl-6,7,8,9-tetrahydro-pyrimido[1,2-a]-pyrimidin-4-one] | < 10 nM
C[C@@H]1COCCN1c1cc(=O)n2c(n1)N(Cc1nc(C(F)(F)F)no1)[C@H](C(F)(F)F)CC2 [Example 292, (S)-2-((R)-3-Methyl-morpholin-4-yl)-8-trifluoromethyl-9-(3-trifluoromethyl-[1,2,4]oxadiazol-5-yl-methyl)-6,7,8,9-tetrahydro-pyrimido[1,2-a]-pyrimidin-4-one] | < 10 nM
CC(C)=CCN1c2nc(N3CCOC[C@H]3C)cc(=O)n2CC[C@H]1C(F)(F)F [Example 266, (S)-9-(3-Methyl-but-2-enyl)-2-((R)-3-methyl-morpholin-4-yl)-8-trifluoromethyl-6,7,8,9-tetrahydro-pyrimido[1,2-a]-pyrimidin-4-one] | < 10 nM
CC(C)Oc1ccc(N2CC[C@H](C(F)(F)F)n3c2nc(N2CCOC[C@H]2C)cc3=O)cn1 [Example 116, (R)-9-(6-Isopropoxy-pyridin-3-yl)-2-((R)-3-methylmorpholin-4-yl)-6-trifluoromethyl-6,7,8,9-tetrahydro-pyrimido[1,2-a]-pyrimidin-4-one] | < 10 nM
O=c1cc(N2CCOC(CF)C2)nc2n1CC[C@@H](C(F)(F)F)N2Cc1ccccc1 (stereo partly drawn) [Example 193, (S)-9-Benzyl-2-(2-fluoromethyl-morpholin-4-yl)-8-trifluoromethyl-6,7,8,9-tetrahydro-pyrimido[1,2-a]-pyrimidin-4-one] | > 100 nM
C[C@@H]1COCCN1c1cc(=O)n2c(n1)N(CCc1ccccn1)[C@H](C(F)(F)F)CC2 [Example 220, (S)-2-((R)-3-Methyl-morpholin-4-yl)-9-(2-pyridin-2-ylethyl)-8-trifluoromethyl-6,7,8,9-tetrahydro-pyrimido[1,2-a]-pyrimidin-4-one] | < 10 nM
CO[C@H](CN1c2nc(N3C[C@H]4CC[C@@H](C3)O4)cc(=O)n2CC[C@H]1C(F)(F)F)c1ccccc1 [Example 206, (S)-9-((S)-2-Methoxy-2-phenylethyl)-2-(1R,5S)-8-oxa-3-aza-bicyclo[3.2.1]oct-3-yl-8-trifluoromethyl-6,7,8,9-tetrahydro-pyrimido[1,2-a]-pyrimidin-4-one] | < 10 nM
C[C@@H]1COCCN1c1cc(=O)n2c(n1)N(CC(=O)c1ccccn1)[C@](C)(C(F)(F)F)C2 [Example 179, (S)-2-Methyl-7-((R)-3-methylmorpholin-4-yl)-1-(2-oxo-2-pyridin-2-ylethyl)-2-trifluoromethyl-2,3-dihydro-1H-imidazo[1,2-a]-pyrimidin-5-one] | < 10 nM
C[C@@H]1COC[C@@H](C)N1c1cc(=O)n2c(n1)N(Cc1ncco1)[C@H](C(F)(F)F)CC2 [Example 158, (S)-2-((3R,5R)-3,5-Dimethylmorpholin-4-yl)-9-oxazol-2-yl-methyl-8-trifluoromethyl-6,7,8,9-tetrahydro-pyrimido[1,2-a]-pyrimidin-4-one] | < 10 nM
C[C@@H]1COCCN1c1nc2n(c(=O)c1F)CC[C@@H](C(F)(F)F)N2CC(=O)N1CCCCO1 [Example 317, (S)-3-Fluoro-2-((R)-3-methylmorpholin-4-yl)-9-(2-[1,2]oxazinan-2-yl-2-oxoethyl)-8-trifluoromethyl-6,7,8,9-tetrahydropyrimido-[1,2-a]pyrimidin-4-one] | < 10 nM
O=C(CN1c2nc(N3CC4CCC(C3)O4)c(F)c(=O)n2CC[C@H]1C(F)(F)F)C1CC1 [Example 273, (S)-9-(2-Cyclopropyl-2-oxoethyl)-3-fluoro-2-(8-oxa-3-aza-bicyclo[3.2.1]oct-3-yl)-8-trifluoromethyl-6,7,8,9-tetrahydro-pyrimido[1,2-a]-pyrimidin-4-one] | 10 to 100 nM
C[C@@H]1COCCN1c1cc(=O)n2c(n1)N(c1cccnc1)[C@H](C(F)(F)F)CC2 [Example 301, (S)-2-((R)-3-Methyl-morpholin-4-yl)-9-pyridin-3-yl-8-trifluoromethyl-6,7,8,9-tetrahydro-pyrimido[1,2-a]-pyrimidin-4-one] | < 10 nM
C[C@@H]1COCCN1c1nc2n(c(=O)c1F)C[C@@](C)(C(F)(F)F)N2CC(=O)C1CC1 [Example 187, (S)-1-(2-Cyclopropyl-2-oxoethyl)-6-fluoro-2-methyl-7-((R)-3-methylmorpholin-4-yl)-2-trifluoromethyl-2,3-dihydro-1H-imidazo[1,2-a]-pyrimidin-5-one] | < 10 nM
